Experimental data taken from patent publication US8110570B2, “Modulators of acetyl-coenzyme A carboxylase and methods of use thereof” (Cropsolution, Inc., priority 2008, dated 2012).

How the values were obtained:
[1] = target: T1, hACC2 (Homo sapiens, UniProt O00763); assay: [14C]bicarbonate incorporation assay, overall ACC activity; format: biochemical; settings: recombinant hACC2, overall ACC activity
T1 construct: delete amino acids 1-148 and add Met-Gly in front of Lys149 in the final product; His tag (C); made in house; host or cells: baculovirus, Sf9 insect cells
T1 sequence (O00763 149-2458 limits assumed): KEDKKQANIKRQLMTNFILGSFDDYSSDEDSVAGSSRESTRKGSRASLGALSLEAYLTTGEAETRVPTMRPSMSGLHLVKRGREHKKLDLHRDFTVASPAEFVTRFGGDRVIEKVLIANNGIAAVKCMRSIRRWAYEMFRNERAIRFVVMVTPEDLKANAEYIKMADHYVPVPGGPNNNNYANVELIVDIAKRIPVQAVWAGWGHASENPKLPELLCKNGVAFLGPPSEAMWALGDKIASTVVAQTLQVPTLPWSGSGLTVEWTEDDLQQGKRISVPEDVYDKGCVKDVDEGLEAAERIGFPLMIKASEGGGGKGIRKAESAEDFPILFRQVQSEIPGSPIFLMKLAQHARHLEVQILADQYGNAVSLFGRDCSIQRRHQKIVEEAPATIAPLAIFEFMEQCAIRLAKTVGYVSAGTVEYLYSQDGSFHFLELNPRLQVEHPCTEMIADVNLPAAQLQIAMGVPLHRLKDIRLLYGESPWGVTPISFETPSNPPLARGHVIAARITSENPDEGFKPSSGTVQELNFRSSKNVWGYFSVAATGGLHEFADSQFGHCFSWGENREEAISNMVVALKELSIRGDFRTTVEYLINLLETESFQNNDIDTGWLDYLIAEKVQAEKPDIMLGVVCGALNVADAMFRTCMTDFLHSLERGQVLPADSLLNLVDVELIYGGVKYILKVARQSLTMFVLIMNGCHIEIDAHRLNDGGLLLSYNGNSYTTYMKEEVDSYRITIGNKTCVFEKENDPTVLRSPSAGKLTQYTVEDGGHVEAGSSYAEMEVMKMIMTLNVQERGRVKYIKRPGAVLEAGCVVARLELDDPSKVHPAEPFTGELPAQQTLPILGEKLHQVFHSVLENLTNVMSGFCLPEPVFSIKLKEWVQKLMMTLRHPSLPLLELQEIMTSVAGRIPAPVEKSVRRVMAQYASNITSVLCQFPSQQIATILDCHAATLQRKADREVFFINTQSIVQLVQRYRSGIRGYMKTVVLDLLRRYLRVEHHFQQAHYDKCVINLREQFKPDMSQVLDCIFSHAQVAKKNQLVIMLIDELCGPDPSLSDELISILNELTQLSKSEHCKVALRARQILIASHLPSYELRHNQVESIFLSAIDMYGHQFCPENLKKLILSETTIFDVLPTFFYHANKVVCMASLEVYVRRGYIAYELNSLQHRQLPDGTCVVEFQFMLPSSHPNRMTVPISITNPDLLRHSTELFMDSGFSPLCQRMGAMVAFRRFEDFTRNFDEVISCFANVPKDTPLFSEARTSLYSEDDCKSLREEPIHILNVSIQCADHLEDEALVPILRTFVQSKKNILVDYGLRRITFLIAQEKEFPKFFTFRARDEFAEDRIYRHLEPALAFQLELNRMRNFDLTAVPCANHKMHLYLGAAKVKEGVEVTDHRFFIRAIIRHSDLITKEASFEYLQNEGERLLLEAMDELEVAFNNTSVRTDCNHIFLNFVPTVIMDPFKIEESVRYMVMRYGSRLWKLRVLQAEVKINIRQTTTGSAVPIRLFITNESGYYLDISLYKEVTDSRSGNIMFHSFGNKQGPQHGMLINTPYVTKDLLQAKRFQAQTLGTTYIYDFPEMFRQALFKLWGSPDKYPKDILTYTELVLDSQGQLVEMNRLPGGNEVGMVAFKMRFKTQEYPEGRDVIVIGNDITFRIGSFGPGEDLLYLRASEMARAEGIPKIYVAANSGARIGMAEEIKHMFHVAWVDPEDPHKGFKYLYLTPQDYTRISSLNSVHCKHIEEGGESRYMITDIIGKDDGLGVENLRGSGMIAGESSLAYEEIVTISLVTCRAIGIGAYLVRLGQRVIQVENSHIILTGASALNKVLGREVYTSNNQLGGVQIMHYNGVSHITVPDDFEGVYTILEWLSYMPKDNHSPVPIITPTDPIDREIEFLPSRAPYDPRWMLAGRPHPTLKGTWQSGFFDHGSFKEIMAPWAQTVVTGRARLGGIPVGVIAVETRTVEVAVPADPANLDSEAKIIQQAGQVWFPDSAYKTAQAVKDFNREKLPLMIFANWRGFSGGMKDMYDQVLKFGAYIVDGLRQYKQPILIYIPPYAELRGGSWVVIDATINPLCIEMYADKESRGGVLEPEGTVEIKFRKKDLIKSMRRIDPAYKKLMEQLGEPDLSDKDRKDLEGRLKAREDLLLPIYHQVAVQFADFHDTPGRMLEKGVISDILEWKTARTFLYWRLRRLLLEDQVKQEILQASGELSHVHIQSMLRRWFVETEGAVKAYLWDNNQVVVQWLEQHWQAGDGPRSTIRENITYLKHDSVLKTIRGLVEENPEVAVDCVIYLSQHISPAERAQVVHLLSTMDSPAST
Protocol: (§1) In vitro IC50 values of human ACC were determined using recombinant enzyme produced by standard procedures. For example, full-length cDNAs for both the human isoforms (hACC1 and hACC2) were each cloned and expressed as a recombinant protein using a baculovirus system. Double stranded cDNA from human fetal liver (Quick-Clone cDNA, cat. #7171-1) was purchased from BD/Clontech (Mt. View, Calif.). PCR primers were designed for full-length hACC1 and hACC2 using GenBank submissions AY237919 and AJ575592, respectively. The Advantage GC 2 PCR kit (BD/Clontech) was used for amplification. The PCR products (about 7 Kb) were TOPO-cloned into the pCR4Blunt vector (Invitrogen, Carlsbad, Calif.), and 6 clones of each gene were isolated. […] Full length versions of the two cDNAs corresponding to their respective Genbank sequences were assembled in pBluescript SK+ (Stratagene, La Jolla, Calif.) by combining error-free fragments from the PCR clones. The resulting hACC1 clone, designated pCS35, has six silent nucleotide differences compared to Genbank accession AY237919. The final hACC2 clone, designated pCS36, has ten silent nucleotide differences compared to Genbank accession AJ575592. Primers were designed to PCR amplify the cDNAs along with the in-frame 3′-his tag sequences from the pET vector and TOPO-cloned the resulting products into the Gateway® entry vector pENTR/D-TOPO. The ACC2 primers were designed to delete amino acids 1-148 and add Met-Gly in front of Lys149 in the final product. The resulting entry clones were transferred to BaculoDirect™ linear DNA (Invitrogen corp.) using the Gateway® LR recombination reaction. The recombinant baculovirus DNA was transfected into insect cells and viral amplification was performed according to the manufacturer's protocols. For protein expression sf9 cells were infected with a P3 viral stock in the presence of 50 uM biotin. The cells were harvested after 48-72 hr, lysed by sonication, and the resulting extract was clarified by centrifugation. ACC in the crude extract was concentrated by ammonium sulfate precipitation (40% w/v) and purified by Ni^2+-NTA chromatography (Novagen) followed by anion exchange chromatography on a UNO-Q column (BioRad).
(§2) Overall ACC activity in the hACC preparations is measured by following incorporation of [^14C]bicarbonate into […] essentially as described (Thumpy and Wakil, J Biol Chem 260, 6318-6323 (1985). Briefly, the reaction mixture (50 μL) contains: 50 mM Hepes (pH7.4), 20 mM K-Citrate, 20 mM Mg-Acetate 1.5 mM MgSO4, 2 mM DTT, 2 mM acetyl-CoA, 12 mM NaHCO3, 0.2 mM NaH^14CO3 (˜50 mCi/mmol), 0.01% (v/v) Triton X-100, 0.75 mg/mL BSA, 1% (v/v) DMSO (with or without inhibitor), and 0.3 μg (hACC1) or 0.15 μg (hACC2) enzyme. Reactions are initiated by the addition of ATP to a final concentration 2 mM. After 10 minutes at 37° C., the reaction is stopped by the addition of 2N HCl (50 μL). The samples are evaporated in a hood overnight, resuspended in H2O (200 μL), and incorporated label is quantified by scintillation counting in scintillation cocktail (3 mL). Inhibition data are fit to dose-response curves and IC50 values are reported (i.e. the concentration of inhibitor that gives 50% inhibition).

[2] = target: T2, hACC1 (Homo sapiens, UniProt Q13085); assay: as above; format: biochemical; settings: recombinant hACC1, overall ACC activity
T2 construct: PCR primers were designed for full-length hACC1 and hACC2 using GenBank submissions AY237919 and AJ575592, respectively; His tag (C); made in house; host or cells: baculovirus, Sf9 insect cells
Protocol: as §1, §2

SMILES | IC50 [1] | IC50 [2]
COc1ccc(OC)c2c1cc(C(=O)N1CCC3(CC1)NC(=O)c1cc(Br)ccc1O3)n2C [Compound 26] | 590 nM | 830 nM
COc1cc(C(=O)N2CCC3(CC2)NC(=O)c2cc(Br)ccc2O3)nc2ccccc12 [Compound 40] | 900 nM | –
COc1cccc2ccc(C(=O)N3CCC4(CC3)NC(=O)c3cc(Br)ccc3O4)nc12 [Compound 44] | 490 nM | 740 nM
COc1cc(C(=O)N2CCC3(CC2)NC(=O)c2cc(Br)ccc2N3)nc2c(OC)cccc12 [Compound 71, 6′-Bromo-1-[(4,8-dimethoxyquinoline-2-yl)carbonyl]spiro[piperidine-4,2′(1′H)-quinazolin]-4′-(3′H)-one] | 490 nM | 1000 nM
COc1cc2c(OC)cccc2cc1C(=O)N1CCC2(CC1)NC(=O)c1cc(Br)ccc1N2 [Compound 90] | 1100 nM | 2200 nM
COc1cc(C(=O)N2CCC3(CC2)NC(=O)c2cc(Br)ccc2N3)nc2c(C(C)C)cccc12 [Compound 91] | 3700 nM | 2000 nM
COc1cc(C(=O)N2CCC3(CC2)NC(=O)c2cc(Br)ccc2N3)nc2c(SC)cccc12 [Compound 93] | 1100 nM | 430 nM
O=C1NC2(CCN(C(=O)c3cccc(-c4cc[nH]n4)c3)CC2)Oc2ccc(Br)cc21 [Compound 103, 6-Bromo-1′-[3-(1H-pyrazol-3-yl)benzoyl]spiro[2H-1,3-benzoxazin-2,4′-piperidin]-4-(3H)-one] | 700 nM | 1300 nM
O=C1NC2(CCN(C(=O)c3ccc4[nH]cnc4c3)CC2)Oc2ccc(Br)cc21 [Compound 109, 1′-[(1H-benzimidazol-5-yl)carbonyl]-6-bromospiro[2H-1,3-benzoxazin-2,4′-piperidin]-4-(3H)-one] | 2900 nM | 600 nM
O=C1NC2(CCN(C(=O)c3ccc4[nH]nnc4c3)CC2)Oc2ccc(Br)cc21 [Compound 110, 1′-[(1H-benzotriazol-5-yl)carbonyl]-6-bromospiro[2H-1,3-benzoxazin-2,4′-piperidin]-4-(3H)-one] | 4600 nM | 6700 nM
COc1cc(C(=O)N2CCC3(CC2)NC(=O)c2cc(Br)ccc2O3)nc2c(C(C)C)cccc12 [Compound 134] | – | 4700 nM
COc1cc(C(=O)N2CCC3(CC2)NC(=O)c2cc(Br)ccc2O3)c(OC)c2ccccc12 [Compound 135, 6-Bromo-1′-[(1,4-dimethoxynaphth-2-yl)carbonyl]spiro[2H-1,3-benzoxazin-2,4′-piperidin]-4-(3H)-one] | – | 2200 nM
Cn1nccc1-c1cccc(C(=O)N2CCC3(CC2)NC(=O)c2cc(Br)ccc2O3)c1 [Compound 141, 6-Bromo-1′-[3-(1-methyl-1H-pyrazol-5-yl)benzoyl]spiro[2H-1,3-benzoxazin-2,4′-piperidin]-4-(3H)-one] | 1300 nM | –
COc1cc(C(=O)N2CCC3(CC2)NC(=O)c2cc4ccccc4cc2O3)nc2c(SC)cccc12 [Compound 158] | 8 nM | –
COc1ccc2c(c1)C(=O)NC1(CCN(C(=O)c3cc4c(OC)ccc(OC)c4n3C)CC1)O2 [Compound 181] | – | 420 nM
COc1cccc2c(C)c(C(=O)N3CCC4(CC3)NC(=O)c3cc(N)ccc3O4)[nH]c12 [Compound 183] | – | 430 nM
COc1ccc2c(c1)C(=O)NC1(CCN(C(=O)c3[nH]c4c(OC)cccc4c3C)CC1)N2 [Compound 189, 6′-Methoxy-1-[[7-methoxy-3-methyl-1H-indol-2-yl)carbonyl]spiro-[piperidine-4,2′(1′H)-quinazolin]-4′-(3′H)-one] | – | 500 nM
COc1cc(C(=O)N2CCC3(CC2)NC(=O)c2cc(OC(F)(F)F)ccc2N3)nc2c(OC)cccc12 [Compound 195] | – | 500 nM

Second part, the compound after the results:

IC50 [1] | IC50 [2] | SMILES
56 nM | 92 nM | COc1cc(C(=O)N2CCC3(CC2)NC(=O)c2cc(NC(C)=O)ccc2O3)nc2c(OC)cccc12 [Compound 9]
11 nM | 16 nM | COc1cc(C(=O)N2CCC3(CC2)NC(=O)c2cc(-c4nnn[nH]4)ccc2O3)nc2c(OC)cccc12 [Compound 10]
200 nM | 260 nM | COc1ccc(OC)c2[nH]c(C(=O)N3CCC4(CC3)NC(=O)c3cc(Br)ccc3O4)cc12 [Compound 16]
310 nM | 260 nM | COc1ccc(OC)c2[nH]c(C(=O)N3CCC4(CC3)NC(=O)c3cc(NC(C)=O)ccc3O4)cc12 [Compound 17]
180 nM | 140 nM | COc1cccc2c(C)c(C(=O)N3CCC4(CC3)NC(=O)c3cc(Br)ccc3O4)[nH]c12 [Compound 23]
77 nM | 100 nM | COc1cccc2c(C)c(C(=O)N3CCC4(CC3)NC(=O)c3cc(NC(C)=O)ccc3O4)[nH]c12 [Compound 24]
3 nM | 6.2 nM | COc1cc(C(=O)N2CCC3(CC2)NC(=O)c2cc(NC(C)=O)ccc2O3)cc2c(OC)cccc12 [Compound 31, 6-Acetamido-1′-[(4,8-dimethoxynaphth-2-yl)carbonyl]spiro[2H-1,3-benzoxazin-2,4′-piperidin]-4-(3H)-one]
110 nM | 180 nM | COc1cc(C(=O)N2CCC3(CC2)NC(=O)c2cc(Br)ccc2O3)nc2c(C3CC3)cccc12 [Compound 32]
– | 8 nM | COc1cccc2c(C)c(C(=O)N3CCC4(CC3)NC(=O)c3cc5ccccc5cc3O4)[nH]c12 [Compound 161, 1′-[[7-Methoxy-3-methyl-1H-indol-2-yl)carbonyl]spiro[2H-naphtho[2,3-e]-1,3-oxazin-2,4′-piperidin]-4-(3H)-one]
– | 5 nM | COc1ccc2cc3c(cc2c1)C(=O)NC1(CCN(C(=O)c2cc(OC)c4cccc(OC)c4c2)CC1)O3 [Compound 162]
– | 6 nM | COc1cc(C(=O)N2CCC3(CC2)NC(=O)c2cc(OC(C)C)ccc2O3)cc2c(OC)cccc12 [Compound 170]
– | 6 nM | COc1cc(C(=O)N2CCC3(CC2)NC(=O)c2cc(OC(F)(F)F)ccc2O3)cc2c(OC)cccc12 [Compound 173]
– | 21 nM | COc1cc(C(=O)N2CCC3(CC2)NC(=O)c2cc(OC(F)(F)F)ccc2O3)cc2c(SC)cccc12 [Compound 175]
– | 5 nM | CCOc1ccc2c(c1)C(=O)NC1(CCN(C(=O)c3cc(OC)c4cccc(SC)c4c3)CC1)O2 [Compound 176]
– | 5 nM | COc1ccc2c(c1)C(=O)NC1(CCN(C(=O)c3cc(OC)c4cccc(SC)c4c3)CC1)O2 [Compound 177]
– | 14 nM | COc1cc(C(=O)N2CCC3(CC2)NC(=O)c2cc(C(C)C)ccc2O3)cc2c(OC)cccc12 [Compound 178]
– | 38 nM | COc1cc(C(=O)N2CCC3(CC2)NC(=O)c2cc(C(C)C)ccc2O3)cc2c(SC)cccc12 [Compound 179]
– | 160 nM | COc1ccc2c(c1)C(=O)NC1(CCN(C(=O)c3cc4c(OC)ccc(OC)c4[nH]3)CC1)O2 [Compound 182]
– | 62 nM | COc1cc2c(cc1OC)C(=O)NC1(CCN(C(=O)c3cc(OC)c4cccc(OC)c4c3)CC1)N2 [Compound 190]
– | 190 nM | COc1cc2c(cc1OC)C(=O)NC1(CCN(C(=O)c3cc(OC)c4cccc(OC)c4n3)CC1)N2 [Compound 191]
– | 160 nM | COc1cc(C(=O)N2CCC3(CC2)NC(=O)c2cc(C)ccc2N3)cc2c(OC)cccc12 [Compound 192]
– | 70 nM | COc1cc(C(=O)N2CCC3(CC2)NC(=O)c2cc(OC(F)(F)F)ccc2N3)cc2c(OC)cccc12 [Compound 194]
– | 4 nM | COc1cc(C(=O)N2CCC3(CC2)NC(=O)c2cc(N4CCOCC4)ccc2O3)cc2c(OC)cccc12 [Compound 197]
